Tests used:
Assay in all cases: Test B pre-/postemergence plant response
Type in all cases: in vivo
[1] = tested on: woolly cupgrass (Eriochloa villosa); conditions: for Cupgrass, Woolly plant response rating (0 to 100 scale): 62 g ai/ha, 0 is no effect, 13 to 15 days
Method in brief: (§1)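 Pre-em in loam/sand; post-em at 1–4 leaf (2–18 cm) in peat mix. Solvent + surfactant formulation. Greenhouse 13–15 d; visual % control vs untreated, 0–100.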

[2] = tested on: cocklebur (Xanthium strumarium); conditions: for Cocklebur plant response rating (0 to 100 scale): 62 g ai/ha, 0 is no effect, 13 to 15 days
Method in brief: as §1

[3] = tested on: soybean (Glycine max); conditions: for Soybean plant response rating (0 to 100 scale): 62 g ai/ha, 0 is no effect, 13 to 15 days
Method in brief: as §1

[4] = tested on: large crabgrass (Digitaria sanguinalis); conditions: for Crabgrass, Large plant response rating (0 to 100 scale): 62 g ai/ha, 0 is no effect, 13 to 15 days
Method in brief: as §1

[5] = tested on: bermudagrass (Cynodon dactylon); conditions: for Bermudagrass plant response rating (0 to 100 scale): 62 g ai/ha, 0 is no effect, 13 to 15 days
Method in brief: as §1

[6] = tested on: velvetleaf (Abutilon theophrasti); conditions: for Velvetleaf plant response rating (0 to 100 scale): 62 g ai/ha, 0 is no effect, 13 to 15 days
Method in brief: as §1

[7] = tested on: wheat (Triticum aestivum); conditions: for Wheat plant response rating (0 to 100 scale): 62 g ai/ha, 0 is no effect, 13 to 15 days
Method in brief: as §1

[8] = tested on: kochia (Kochia scoparia); conditions: for Kochia plant response rating (0 to 100 scale): 62 g ai/ha, 0 is no effect, 13 to 15 days
Method in brief: as §1

[9] = tested on: Italian ryegrass (Lolium multiflorum); conditions: for Ryegrass, Italian plant response rating (0 to 100 scale): 62 g ai/ha, 0 is no effect, 13 to 15 days
Method in brief: as §1

[10] = tested on: morningglory (Ipomoea coccinea); conditions: for Morningglory plant response rating (0 to 100 scale): 62 g ai/ha, 0 is no effect, 13 to 15 days
Method in brief: as §1

[11] = tested on: downy bromegrass (Bromus tectorum); conditions: for Bromegrass, Downy plant response rating (0 to 100 scale): 62 g ai/ha, 0 is no effect, 13 to 15 days
Method in brief: as §1

[12] = tested on: yellow nutsedge (Cyperus esculentus); conditions: for Nutsedge, Yellow plant response rating (0 to 100 scale): 62 g ai/ha, 0 is no effect, 13 to 15 days
Method in brief: as §1

[13] = 31 g ai/ha, postemergence, scale 0 to 100, 0 is no effect, 100 is complete control
[14] = postemergence, 100 is complete control
[15] = Postemergence, 125 g ai/ha, visual rating after 13 to 15 days, scale 0 (no effect) to 100 (complete control)
[16] = Postemergence, 250 g ai/ha, scale 0 to 100 (0 no effect, 100 complete control)

CC(C)CC(=O)OC1=C(C(=O)c2cnc(-c3ccccc3)n(-c3ccccc3)c2=O)C(=O)CCC1 [Compound 83]
Plant response rating, Cupgrass, Woolly [1, 13]: 70
Cupgrass, Woolly plant response rating (0 to 100 scale) [1, 14]: 85
Plant response rating, Cupgrass, Woolly [1, 15]: 90
Plant response rating, Cupgrass, Woolly [1, 16]: 95
Plant response rating, Cocklebur [2, 13]: 75
Cocklebur plant response rating (0 to 100 scale) [2, 14]: 80
Plant response rating, Cocklebur [2, 15]: 80
Plant response rating, Cocklebur [2, 16]: 90
Plant response rating, Soybean [3, 13]: 75
Soybean plant response rating (0 to 100 scale) [3, 14]: 90
Plant response rating, Soybean [3, 16]: 95
Plant response rating, Crabgrass, Large [4, 13]: 85
Crabgrass, Large plant response rating (0 to 100 scale) [4, 14]: 85
Plant response rating, Crabgrass, Large [4, 15]: 95
Plant response rating, Crabgrass, Large [4, 16]: 98
Plant response rating, Bermudagrass [5, 13]: 75
Bermudagrass plant response rating (0 to 100 scale) [5, 14]: 75
Plant response rating, Bermudagrass [5, 15]: 85
Plant response rating, Bermudagrass [5, 16]: 90
Plant response rating, Velvetleaf [6, 13]: 85
Velvetleaf plant response rating (0 to 100 scale) [6, 14]: 90
Plant response rating, Velvetleaf [6, 16]: 100
Plant response rating, Wheat [7, 13]: 0
Wheat plant response rating (0 to 100 scale) [7, 14]: 0
Plant response rating, Wheat [7, 16]: 0
Plant response rating, Kochia [8, 13]: 65
Kochia plant response rating (0 to 100 scale) [8, 14]: 75
Plant response rating, Kochia [8, 16]: 95
Plant response rating, Ryegrass, Italian [9, 13]: 0
Ryegrass, Italian plant response rating (0 to 100 scale) [9, 14]: 0
Plant response rating, Ryegrass, Italian [9, 16]: 5
Plant response rating, Morningglory [10, 13]: 70
Morningglory plant response rating (0 to 100 scale) [10, 14]: 75
Plant response rating, Morningglory [10, 16]: 100
Plant response rating, Bromegrass, Downy [11, 13]: 40
Bromegrass, Downy plant response rating (0 to 100 scale) [11, 14]: 45
Plant response rating, Bromegrass, Downy [11, 15]: 45
Plant response rating, Bromegrass, Downy [11, 16]: 60
Plant response rating, Nutsedge, Yellow [12, 13]: 10
Nutsedge, Yellow plant response rating (0 to 100 scale) [12, 14]: 20
Plant response rating, Nutsedge, Yellow [12, 16]: 85

COCCn1c(-c2ccccc2)ncc(C(=O)C2=C(O)CCCC2=O)c1=O [Compound 85]
Plant response rating, Cupgrass, Woolly [1, 13]: 75
Cupgrass, Woolly plant response rating (0 to 100 scale) [1, 14]: 85
Plant response rating, Cupgrass, Woolly [1, 15]: 90
Plant response rating, Cupgrass, Woolly [1, 16]: 90
Plant response rating, Cocklebur [2, 13]: 95
Cocklebur plant response rating (0 to 100 scale) [2, 14]: 95
Plant response rating, Cocklebur [2, 15]: 98
Plant response rating, Cocklebur [2, 16]: 98
Plant response rating, Soybean [3, 13]: 80
Soybean plant response rating (0 to 100 scale) [3, 14]: 85
Plant response rating, Soybean [3, 16]: 95
Plant response rating, Crabgrass, Large [4, 13]: 90
Crabgrass, Large plant response rating (0 to 100 scale) [4, 14]: 90
Plant response rating, Crabgrass, Large [4, 15]: 90
Plant response rating, Crabgrass, Large [4, 16]: 95
Plant response rating, Bermudagrass [5, 13]: 85
Bermudagrass plant response rating (0 to 100 scale) [5, 14]: 85
Plant response rating, Bermudagrass [5, 15]: 90
Plant response rating, Bermudagrass [5, 16]: 90
Plant response rating, Velvetleaf [6, 13]: 90
Velvetleaf plant response rating (0 to 100 scale) [6, 14]: 98
Plant response rating, Velvetleaf [6, 16]: 98
Plant response rating, Wheat [7, 13]: 0
Wheat plant response rating (0 to 100 scale) [7, 14]: 5
Plant response rating, Wheat [7, 16]: 35
Plant response rating, Kochia [8, 13]: 75
Kochia plant response rating (0 to 100 scale) [8, 14]: 85
Plant response rating, Kochia [8, 16]: 90
Plant response rating, Ryegrass, Italian [9, 13]: 0
Ryegrass, Italian plant response rating (0 to 100 scale) [9, 14]: 10
Plant response rating, Ryegrass, Italian [9, 16]: 45
Plant response rating, Morningglory [10, 13]: 95
Morningglory plant response rating (0 to 100 scale) [10, 14]: 100
Plant response rating, Morningglory [10, 16]: 100
Plant response rating, Bromegrass, Downy [11, 13]: 0
Bromegrass, Downy plant response rating (0 to 100 scale) [11, 14]: 5
Plant response rating, Bromegrass, Downy [11, 15]: 25
Plant response rating, Bromegrass, Downy [11, 16]: 30
Plant response rating, Nutsedge, Yellow [12, 13]: 75
Nutsedge, Yellow plant response rating (0 to 100 scale) [12, 14]: 85
Plant response rating, Nutsedge, Yellow [12, 16]: 85

Source: patent US8952024B2, “Herbicidal pyrimidone derivatives” (E I du Pont de Nemours and Company, priority 2009, dated 2015)
